According to ChEMBL document CHEMBL1143495, “Topological model for the prediction of MRP1 inhibitory activity of pyrrolopyrimidines and templates derived from pyrrolopyrimidine” (Bioorg Med Chem Lett, 2005):

molecular target: Multidrug resistance-associated protein 1 (Homo sapiens, UniProt P33527); experiment: Inhibitory concentration against multidrug resistance associated protein 1
Sequence (P33527 whole entry): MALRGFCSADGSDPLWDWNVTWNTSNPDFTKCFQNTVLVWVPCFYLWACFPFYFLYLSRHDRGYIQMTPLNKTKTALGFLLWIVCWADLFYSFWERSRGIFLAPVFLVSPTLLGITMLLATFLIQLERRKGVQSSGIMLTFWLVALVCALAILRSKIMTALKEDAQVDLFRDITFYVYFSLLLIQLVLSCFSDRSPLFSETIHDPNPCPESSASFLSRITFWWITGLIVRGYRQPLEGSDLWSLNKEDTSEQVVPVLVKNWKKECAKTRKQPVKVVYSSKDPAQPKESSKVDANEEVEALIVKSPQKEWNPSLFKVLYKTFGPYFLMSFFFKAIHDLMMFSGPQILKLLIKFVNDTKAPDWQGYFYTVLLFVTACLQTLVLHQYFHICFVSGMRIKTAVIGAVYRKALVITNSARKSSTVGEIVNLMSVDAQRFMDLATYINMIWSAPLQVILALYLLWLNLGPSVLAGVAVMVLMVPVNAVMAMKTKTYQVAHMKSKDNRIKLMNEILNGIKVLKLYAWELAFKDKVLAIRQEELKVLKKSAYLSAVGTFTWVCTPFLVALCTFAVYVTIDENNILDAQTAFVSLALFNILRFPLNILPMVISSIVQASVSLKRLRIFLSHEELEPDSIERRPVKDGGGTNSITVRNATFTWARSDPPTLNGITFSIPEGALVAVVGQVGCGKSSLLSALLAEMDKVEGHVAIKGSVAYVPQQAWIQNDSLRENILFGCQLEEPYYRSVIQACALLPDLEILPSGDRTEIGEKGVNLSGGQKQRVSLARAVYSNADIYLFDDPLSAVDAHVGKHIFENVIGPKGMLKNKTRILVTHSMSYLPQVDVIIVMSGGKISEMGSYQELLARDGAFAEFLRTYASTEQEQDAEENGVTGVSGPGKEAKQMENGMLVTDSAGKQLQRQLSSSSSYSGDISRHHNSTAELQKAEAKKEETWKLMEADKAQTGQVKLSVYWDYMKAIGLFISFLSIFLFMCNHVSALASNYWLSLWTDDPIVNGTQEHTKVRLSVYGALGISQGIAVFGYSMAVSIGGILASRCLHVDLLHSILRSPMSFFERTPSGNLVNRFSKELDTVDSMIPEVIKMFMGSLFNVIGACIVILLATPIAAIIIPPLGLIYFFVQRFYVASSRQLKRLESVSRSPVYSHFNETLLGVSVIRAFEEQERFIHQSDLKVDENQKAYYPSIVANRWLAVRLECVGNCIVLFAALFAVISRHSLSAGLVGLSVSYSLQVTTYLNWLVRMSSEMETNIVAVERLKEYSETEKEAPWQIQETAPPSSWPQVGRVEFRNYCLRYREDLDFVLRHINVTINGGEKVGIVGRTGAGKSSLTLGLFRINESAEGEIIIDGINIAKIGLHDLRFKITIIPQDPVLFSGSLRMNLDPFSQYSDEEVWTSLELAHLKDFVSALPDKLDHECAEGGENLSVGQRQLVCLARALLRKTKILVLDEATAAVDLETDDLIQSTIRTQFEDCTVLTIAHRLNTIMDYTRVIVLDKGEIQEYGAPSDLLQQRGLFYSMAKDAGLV

Row | Structure (SMILES) | IC50 [nM]
1 | CCOC(=O)Cn1c2cccc(C(N)=O)c2c2ncnc(N3CCN(CCc4ccc(F)c(F)c4)CC3)c21 | < 250
2 | N#Cc1c2n(c3c(N4CCN(CCc5ccc([N+](=O)[O-])cc5)CC4)ncnc13)CCCC2 | ≥ 250
3 | N#Cc1c2n(c3c(NCCc4ccccc4)ncnc13)CCCC2 | ≥ 250
4 | N#Cc1c2n(c3c(N4CCN(CCc5ccccc5[N+](=O)[O-])CC4)ncnc13)CCCC2 | ≥ 250
5 | N#Cc1c2n(c3c(N4CCN(CCc5c[nH]c6ccccc56)CC4)ncnc13)CCCC2 | ≥ 250
6 | N#Cc1c2n(c3c(N4CCN(CCc5ccc(F)c(F)c5)CC4)nc(-c4cccnc4)nc13)CCCC2 | < 250
7 | N#Cc1c2n(c3c(N4CCN(CCc5ccc(Cl)cc5)CC4)ncnc13)CCCC2 | ≥ 250
8 | N#Cc1c2n(c3c(N4CCN(CCc5cccc(Cl)c5)CC4)ncnc13)CCCC2 | ≥ 250
9 | Cc1cnc2c(c1C#N)c1ncnc(N3CCN(CCc4ccc(F)c(F)c4)CC3)c1n2C | ≥ 250
10 | O=C(c1ccccc1)c1c2n(c3c(N4CCN(CCc5ccccc5)CC4)ncnc13)CCCC2 | ≥ 250
11 | Cc1cnc2c(c1C(N)=O)c1ncnc(N3CCN(CCc4ccc(F)c(F)c4)CC3)c1n2C | < 250
12 | N#Cc1c2n(c3c(N4CCN(S(=O)(=O)Cc5ccccc5)CC4)ncnc13)CCCC2 | ≥ 250
13 | Cc1nc(-c2c3n(c4c(N5CCN(CCc6ccccc6)CC5)ncnc24)CCCC3)sc1C | ≥ 250
14 | COc1ccc(CCN2CCN(c3ncnc4c(C#N)c5n(c34)CCCC5)CC2)cc1 | ≥ 250
15 | N#Cc1c2n(c3c(N4CCN(CCCc5ccccc5)CC4)ncnc13)CCCC2 | ≥ 250

Continued, values first:

Row | IC50 [nM] | Structure (SMILES)
16 | ≥ 250 | CCC(=O)c1c2n(c3c(N4CCN(CCc5ccccc5)CC4)ncnc13)CCCC2
17 | ≥ 250 | Cc1ccccc1-c1nc(N2CCN(CCc3ccc(F)c(F)c3)CC2)c2c(n1)c(C#N)c1n2CCCC1
18 | ≥ 250 | c1ccc(CCN2CCN(c3ncnc4c(-c5ncccn5)c5n(c34)CCCC5)CC2)cc1
19 | ≥ 250 | N#Cc1c2n(c3c(N4CCN(CCc5ccccc5)CC4)nc(-c4ccccc4)nc13)CCCC2
20 | ≥ 250 | N#Cc1c2n(c3c(N4CCN(CCc5cccc([N+](=O)[O-])c5)CC4)ncnc13)CCCC2
21 | < 250 | NC(=O)c1c2n(c3c(N4CCN(CCc5ccc(F)c(F)c5)CC4)ncnc13)CCCC2
22 | < 250 | N#Cc1c2n(c3c(N4CCN(CCc5ccc(F)c(F)c5)CC4)nc(-c4ccncc4)nc13)CCCC2
23 | < 250 | O=C(NCc1ccccn1)c1c2n(c3c(N4CCN(CCc5ccc(F)c(F)c5)CC4)ncnc13)CCCC2
24 | ≥ 250 | N#Cc1c2n(c3c(NCCN4CCc5ccccc5C4)ncnc13)CCCC2
25 | ≥ 250 | Cc1nc(-c2c3n(c4c(N5CCN(CCc6ccccc6)CC5)ncnc24)CCCC3)no1
26 | ≥ 250 | CN(CCc1ccccc1)c1ncnc2c(C#N)c3n(c12)CCCC3
27 | ≥ 250 | N#Cc1c2n(c3c(N4CCN(CCc5ccccc5)CC4)nc(I)nc13)CCCC2
28 | < 250 | COc1cccc(CNC(=O)c2c3n(c4c(N5CCN(CCc6ccc(F)c(F)c6)CC5)ncnc24)CCCC3)c1OC
29 | ≥ 250 | CC(=O)Nc1ccc(-c2nc(N3CCN(CCc4ccccc4)CC3)c3c(n2)c(C#N)c2n3CCCC2)cc1
30 | < 250 | N#Cc1c2n(c3c(N4CCN(CCc5ccc(F)c(F)c5)CC4)ncnc13)CCCC2
31 | ≥ 250 | COc1cccc(CCN2CCN(c3ncnc4c(C#N)c5n(c34)CCCC5)CC2)c1
32 | ≥ 250 | COC(=O)c1c2n(c3c(N4CCN(CCc5ccccc5)CC4)ncnc13)CCCC2
33 | ≥ 250 | N#Cc1c2n(c3c(NS(=O)(=O)Cc4ccccc4)ncnc13)CCCC2
34 | ≥ 250 | N#Cc1c2n(c3c(N4CCN(CC(=O)c5ccccc5)CC4)ncnc13)CCCC2
35 | ≥ 250 | N#Cc1c2n(c3c(N4CCN(CCc5ccccc5Cl)CC4)ncnc13)CCCC2
36 | < 250 | Cc1c([N+](=O)[O-])nc2c(c1C(N)=O)c1ncnc(N3CCN(CCc4ccc(F)c(F)c4)CC3)c1n2C
